Assay results: US20150259331A1, “PROTOZOAN PARASITE GROWTH INHIBITORS” (Northeastern University, priority 2014, published 2015)

Assays:
in vitro = conditions: for fraction unbound at 4 h, 5 μM: mice plasma
Experimental: Mice plasma (BALB/c mice, male—pool of 3 animals) was collected in-house using K2EDTA as anticoagulant. […] Glipizide (Cat #50402G) was purchased from Apin chemicals, Abingdon, Oxon. Albendazole (Cat #A4673) was purchased from Sigma. Phosphate buffered saline pH 7.4 (0.1 M sodium phosphate and 0.15 M sodium chloride) and RED device inserts were procured from Thermo Scientific, Meridian Rd., Rockford, Ill.
Further 1 mM stock was diluted 200-fold in mice plasma to prepare a concentration of 5 μM. The final DMSO concentration in plasma was 0.5%.
Rapid equilibrium dialysis was performed with a rapid equilibrium dialysis (RED) device containing dialysis membrane with a molecular weight cut-off of 8,000 Daltons. Each dialysis insert contains two chambers. The red chamber is for plasma while the white chamber is for buffer. A 200 μL aliquot of warfarin or test compound at 5 μM (triplicates) was separately added to the plasma chamber and 350 μL of phosphate buffer saline (pH 7.4) was added to the buffer chamber of the inserts. After sealing the RED device with an adhesive film, dialysis was performed at 37° C. with shaking at 100 rpm for 4 hours as per manufacturer's recommendation.
Recovery and stability: A 50 μL aliquot of warfarin or test compound was added to four 0.5 mL microfuse tubes. Two aliquots were frozen immediately (0 minute sample). The other two aliquots were incubated at 37° C. for 4 hours along with the RED device.
Following dialysis, an aliquot of 50 μL was removed from each well (both plasma and buffer side) and diluted with equal volume of opposite matrix (dialyzed with the other matrix) to nullify the matrix effect. Similarly, 50 μL of buffer was added to recovery and stability samples. An aliquot of 100 μL was submitted for LC-MS/MS analysis.
A 25 μL aliquot of warfarin and test compounds were crashed with 100 μL of acetonitrile containing internal standard (glipizide for warfarin and test compound) and vortexed for 5 minutes. The samples were centrifuged at 15,000 rpm at 4° C. for 10 min and 100 μL of supernatant was submitted for LCMS/MS analysis. Samples were monitored for parent compound in MRM mode using LC-MS/MS.

P. falciparum C235 = P. falciparum C235 assay; type: cell-based; conditions: Plasmodium falciparum; strain C235; read-out: P. falciparum C235 (EC50)
T. brucei = test: Trypanosome DNA content and organelle (cell cycle) analysis; type: cell-based
Excerpt: The kinetoplast and nucleus can be tracked by microscopy during the cell cycle, which begins with trypanosomes harboring one nucleus (1N) and one kinetoplast (1K) (i.e., 1K1N cells). A kinetoplast that is replicating its (DNA) (i.e., kDNA) and increasing the organelle's mass is observed as an elongated kinetoplast (1Ke). Fission (segregation) of 1Ke kinetoplasts into two daughter kinetoplasts (2K) inside the same cell is coincident with the nuclear S-phase and produces 2K1N trypanosomes. Mitosis then occurs, yielding trypanosomes containing two kinetoplasts and two nuclei (2K2N). Following cell division, each daughter trypanosome has a 1K1N configuration of the organelles.

What does the source list for Fc1cccc(COc2ccc(Nc3ncnc4ccc(-c5cccc(N6CCOCC6)c5)cc34)cc2Cl)c1 [Compound 23a, N-(3-Chloro-4-((3-fluorobenzyl)oxy)phenyl)-6-(3-morpholinophenyl)quinazolin-4-amine]?
recovery at 4 h, 5 μM (in vitro; male, BALB/c, mouse, pH 7.4): 100%; % Bound Mean (SD) (in vitro; male, BALB/c, mouse, plasma, pH 7.4): 99.6%; fraction unbound at 4 h, 5 μM (in vitro; male, BALB/c, mouse, plasma, pH 7.4, % Bound R1, replicate 1, 37° C.): 0.005; fraction unbound at 4 h, 5 μM (in vitro; male, BALB/c, mouse, plasma, pH 7.4, % Bound R2, replicate 2, 37° C.): 0.003; % compound remaining at 4 h (in vitro; plasma stability, 37° C.): 85%; EC50 (P. falciparum C235): 0.37 µM; effect on kinetoplast, nucleus and cytokinesis (single cell microscopy) (T. brucei): blocks duplication of the kinetoplast and arrests cytokinesis without inhibiting division of the trypanosome nucleus; proportion of cells with 4C DNA (T. brucei; 7 h incubation, 25% without drug): 40%; fraction of cells with 2C-4C equivalents of DNA (T. brucei; 7 h incubation, 40% without drug): 25%
